Reference: US20030208035A1, “Antifungal and/or antibacterial peptides, preparation methods, compositions containing same and methods of treating mammals and/or plants” (priority 2000, published 2003)
In brackets after ≈: the same amount, converted by molar mass. Where two headings read alike, the source gives them in different places. Bridges are numbered along the chain shown (N, C = ends). Where no end group is shown, it is not given here.

Columns and labels:
F. solani = test: Test to detect activity against filamentous fungi (MIC); format: cell-based; conditions: F. solani FFUS 8591
Experimental: (§1) The antifungal activity was detected by a growth inhibition test in a liquid medium.
(§2) The filamentous fungi (A. fumigatus, A. flavus and A. terreus, donated by Dr. H. Koenig, Hôpital Civil, Strasbourg; and S. prolificans and F. solani donated by Drs. J. Meis and J. Mouton, University hospital, Microbioolgy Department, Nijmegen, Netherlands) were seeded on Malt-Agar slant gelose (Biomerieux) and incubated 7 days at 37° C.
(§3) The spores were then collected with 10 ml YPG medium containing 0.05% Tween 20 and filtered through a gauze. The spores were centrifuged 10 min at 1700 rpm, the residue was collected in YPG (1 g Yeast extract, 1 g Peptone, 3 g Glucose per 1 l).
(§4) The suspension was counted with a Coverslide and adjusted to 10^4 spores/ml.
(§5) 100 μl of peptide dilutions (concentration of 50 with 0.097 μg/ml peptide) were deposited in microtitration plates. 100 μl with 10^4 spores/ml of filamentous fungi, i.e. 1000 spores, were then added.
(§6) The test plates were incubated 48 h at 37° C.
(§7) Determination of minimum inhibiting concentrations (MIC) was made by observing well cover rate. The MIC score was set at 50% well covering.

S. prolificans = test: as above; format: cell-based
Experimental: as §1, §2, §3, §4, §5, §6, §7

[1] = test system: fluconazole-resistant C. albicans; test: microbe, parasite or virus in culture; format: cell-based, Candida albicans
Experimental: (§8) Candida yeasts (C. albicans, C. glabrata, C. dubliensis, C. tropicalis, C. kefyr, C. krusei and C. parapsilosis—donated by Dr. H. Koenig, Hôpital Civil, Strasbourg), fluconazole-resistant C. albicans (n^o245962, n^o2332, n^o246335 and n^o3552, donated by Drs. J.Meis and J. Mouton, University Hospital, Microbiology Department, Nijmegen, Netherlands), and Cryptoccocus neoformans (donated by Dr. H. Koenig, Hôpital Civil, Strasbourg) were seeded on Sabouraud-Cloramphenicol Agar slant gelose (Biomerieux) and left to incubate for 24 h at 30° C. (Candida sp.) and for 72 h at 37° C. (Cryptoccocus neoformans).
(§9) Some yeast colonies were placed in suspension in liquid Sabouraud medium (Biomerieux) to obtain a final concentration of 0.1 OD at 600 nm corresponding to 2.5.10^6 yeasts/ml.
(§10) The yeast suspension was adjusted to 5.10^3 yeast/ml in Sabouraud medium.
(§11) 100 μl of peptide dilutions (concentration of 50 with 0.097 μg/ml peptide) were deposited in microtitration plates. After adding […] of yeast suspension with 5.10^3 yeast/ml i.e. 500 yeasts, the test plates were incubated 24 h at 30° C. (Candida) under slow shaking or 72 h at 37° C. (Cryptoccocus).
(§12) Determination of minimal inhibiting concentrations (MIC) was made by measuring absorbency at 600 nm using a spectrophotometer-microtitration plate reader. The MIC score was set at a growth inhibition rate of 50%.

A. fumigatus = format: cell-based
Experimental: as §1, §2, §3, §4, §5, §6, §7

[2] = test system: Candida albicans (IHEM 8060 strain); test: Candida albicans infected model, lethal in mice (disseminated candidiasis); format: in vivo; conditions: for time of onset of the 1st death: placebo day 2.5
Experimental: Heliomycin and its analogues were tested for in vivo antifungal activity in a model infected with Candida albicans, lethal in mice. The pathogenic agent Candida albicans (IHEM 8060 strain) was inoculated by intravenous route (i.v.) at a dose of 2.5×10^6 CFU/mouse. the peptides were administered by i.v. route in 4 injections 6 h, 24 h, 48 h and 72 h after infection. Assessment criteria for activity were evaluation of survival and morbidity at 7 days. The morbidity scores, which take into account general state of health (condition of fur, mobility, hydration) were determined for each mouse with values ranging from 0 to 5 and defined below: 0=dead, 1=moribund, 2=very ill, 3=ill, 4=slightly ill, 5=healthy. The sum of the individual scores was calculated for each group, a score of 50 for a group of 10 mice meaning that all the mice were healthy.
Following a standard protocol, groups of 10 Swiss OF1 male mice weighing 12 g were infected via i.v. route with a dose of 2.5×10^6 CFU/mouse. Heliomycin and Ard1 were administered by i.v. route in 4 injections, 6 h, 24 h, 48 h and 72 h after infection. For each peptide, 2 doses were tested: 10 mg/kg and 30 mg/kg. A placebo group was injected with peptide solvent, 0.9% sodium chloride.
In this experiment, inoculation of the mice with 2.5.10^6 CFU/mouse was 50% lethal at day 5 in the group which received placebo treatment. The first deaths occurred on post-infection day 2.5 and median mortality occurred on post-infection day 5. On day 7, 5 mice were alive and the morbidity score 15/50.
In this experiment, inoculation of Swiss OF1 mice weighing 15 g with 3.10^6 CFU of Candida albicans induces 50% mortality on day 4 after infection in the group treated with the placebo. The first deaths occur 2.5 days after infection, and 100% of the mice were dead on day 5.5.
In this experiment, inoculation of the mice with 2.5.10^6 CFU/mouse was 50% lethal at day 5 and 100% at day 8 for mice in the placebo group. The first death occurred 3 days after infection. The morbidity score fell rapidly below 30/50 (25/50 at day 2.5).
The pEM35 peptide was administered at doses of 10 and 30 mg/kg/injection with 3 daily doses for 4 days (1 h, 5 h and 10 h post-infection on day 0; at 8 h, 14 h and 20 h on days 1, 2 and 3), i.e., daily doses totalling 30 and 90 mg/kg.

Candida albicans = test: anti-Candida albicans growth inhibition test in liquid medium (96-well microplates); format: cell-based; conditions: for Activity C.a. (relative activity in relation to Ard1): fold relative to Ard1
Experimental: (§13) The anti-Candida albicans and anti-Aspergillus fumigatus activities of the different analogues were assessed using a growth inhibition test in liquid medium made in 96-well microplates. The activity of the purified peptides was tested for different dilutions of each peptide and was compared with those of heliomycin and Ard1 quantified under the same conditions.
The activity test was made directly on yeasts derived from a stock frozen at −80° C., in Sabouraud medium containing 15% glycerol. The density of the yeasts in the stock was adjusted to an optical density of 0.4 OD at 600 nm. After slow thawing at room temperature, the yeast suspension was reduced by dilution to an optic density of 1 mOD at 600 nm in Sabouraud medium, and 90 μl of this dilution were deposited in the wells of microtitration plates in the presence of 10 μl of sample to be tested. Control samples were systematically made in which 10 μl of sample were replaced by 10 μl of sterile water. Media sterility was controlled by incubating 10 μl sterile water in the presence of 90 μl of medium. The samples were incubated at 30° C. for 40 h under slight stirring and the antifungal activity was quantified by measuring optic density at 600 nm.

Aspergillus fumigatus = test: anti-Aspergillus fumigatus growth inhibition test in liquid medium (96-well microplates); format: cell-based; conditions: for Activity A.f. (relative activity in relation to heliomycin): fold relative to heliomycin; for Activity A.f. (relative activity in relation to Ard1): fold relative to Ard1
Experimental: as §13
The spores of Aspergillus fumigatus were derived from a stock frozen at −80° C., containing 10^7 spores/ml in a 25% glycerol solution. After slow thawing at room temperature, the spores were placed in suspension in PDB culture medium (12 g Potato Dextrose Broth medium, per […] water). 10 μl of each sample were deposited in the wells of microtitration plates in the presence of 90 μl PDB culture medium supplemented with tetracycline (100 μg/ml) and cefotaxime (1 μg/ml) containing the spores (at a final concentration of 1000 spores/well). Control cultures were systematically made in which 10 μl of sample were replaced by 10 μl of sterile water. Media sterility was controlled by incubating 10 μl sterile water in the presence of 90 μl of medium. The samples were incubated at 37° C. for 24 h to 48 h in a humid atmosphere, and the antifungal activity was quantified by a score of 0 to 9 taking germination account; the size and morphology of the hyphs were determined under the binocular microscope. […].

C. glabrata = format: cell-based
Experimental: as §8, §9, §10, §11, §12

C. kefyr = format: cell-based
Experimental: as §8, §9, §10, §11, §12

C. krusei = format: cell-based
Experimental: as §8, §9, §10, §11, §12

Alternaria brassicola = format: cell-based; conditions: 48 h
Experimental: (§14) 100 μl of peptide dilutions (concentration 50 with 0.097 mg/ml peptide) were deposited in microtitration plates.
(§15) After adding 100 μl of frozen spores with 10^4 spores/ml of A. brassicola and N. crassa (donated by Dr. Bullet, IBMC, Strasbourg) the test plates were incubated 48 h at 30° C.
(§16) Determination of minimal inhibiting concentrations (MIC) was made by observing well cover rate. The MIC was set at 50% well covering.

Neurospora crassa = format: cell-based; conditions: 48 h
Experimental: as §14, §15, §16

C. tropicalis = format: cell-based
Experimental: as §8, §9, §10, §11, §12

C. parapsilosis = format: cell-based
Experimental: as §8, §9, §10, §11, §12

C. albicans = format: cell-based, Candida albicans; conditions: 24 h
Experimental: as §8, §9, §10, §11, §12

[3] = fluconazole-resistant C. albicans n° 2332
[4] = fluconazole-resistant C. albicans n° 245962
[5] = fluconazole-resistant C. albicans n° 246335
[6] = FIGS. 4-5, 10 mg/kg, placebo 5 alive
[7] = FIGS. 2-3, 10 mg/kg i.v., 4 injections

Compound: C[C@@H]1[C@H](O)[C@@H](C)/C=C/C=C/C=C/C=C/C=C/C=C/C=C/[C@H](O[C@@H]2O[C@H](C)[C@@H](O)[C@H](N)[C@@H]2O)C[C@@H]2O[C@](O)(C[C@@H](O)C[C@@H](O)[C@H](O)CC[C@@H](O)C[C@@H](O)CC(=O)O[C@H]1C)C[C@H](O)[C@H]2C(=O)O [ampho B, Amphotericin B]
- MIC (F. solani): > 16 µg/mL
- MIC (S. prolificans; S. prolificans FSSP 7902): > 16 µg/mL
- MIC (S. prolificans; S. prolificans FSSP 7908): > 16 µg/mL
- MIC [1, 3]: 0.25 µg/mL (≈ 0.271 µM)
- MIC [1, 4]: 0.125 µg/mL (≈ 0.135 µM)
- MIC [1, 5]: 0.0625 µg/mL (≈ 0.0676 µM)
- MIC (A. fumigatus; A. fumigatus FASF 5161): 0.5 µg/mL (≈ 0.541 µM)

Compound: OC(Cn1cncn1)(Cn1cncn1)c1ccc(F)cc1F [fluconazole]
- MIC ([1]; Candida albicans, fluconazole-resistant C. albicans n° 3552, read-out: MIC): > 64 µg/mL
- MIC [1, 3]: > at 64 μg/ml
- MIC [1, 4]: > at 64 μg/ml
- MIC [1, 5]: > at 64 μg/ml

Compound: DKLIGSCVWGAVNYTSDCNGECKRRGYKGGHCGSFLNINCWCET [pEM24, peptide derived from heliomycin]
- activity compared with Ard1 ([2]; FIGS. 4-5, 10 mg/kg): more active than Ard1
- mice alive on day 7 (out of 10) [2, 6]: 7 mice
- time of onset of the 1st death ([2]; FIGS. 4-5, 10 mg/kg): 3 days
- Activity C.a. (relative activity in relation to heliomycin) (Candida albicans; fold relative to heliomycin): 4
- Activity A.f. (relative activity in relation to heliomycin) (Aspergillus fumigatus): 8

Compound: DKLIGSCVWGAVNYTSNCNAECKRRGYKGGHCGSFANVNCWCER [pEM30, peptide derived from Ard1]
- activity compared with Ard1 ([2]; FIGS. 4-5, 10 mg/kg): more active than Ard1
- mice alive on day 7 (out of 10) [2, 6]: 7 mice
- time of onset of the 1st death ([2]; FIGS. 4-5, 10 mg/kg): 4 days
- Activity C.a. (relative activity in relation to Ard1) (Candida albicans): 4
- Activity A.f. (relative activity in relation to Ard1) (Aspergillus fumigatus): 0.5-1

Compound: DKLIGSCVWGAVNYTSNCNAECKRRGYKGGHCGSFANVNCWCET (disulfide 7-32, 18-40, 22-42 (inferred)) [Ard1]
- MIC (C. glabrata): >25 µg/mL
- MIC (C. kefyr): >25 µg/mL
- MIC (C. krusei): 3.125 µg/mL
- MIC (Alternaria brassicola): >25 µg/mL
- MIC (Neurospora crassa): 0.097 µg/mL
- MIC (A. fumigatus; 48 h): 12.5 µg/mL
- effect on survival and general condition of the mice [2, 7]: did not make it possible to improve survival
- time after infection at which 50% of mice were dead [2, 7]: 2 days
- mice alive on day 7 (out of 10) ([2]; FIGS. 2-3, 30 mg/kg i.v., 4 injections): 5 mice
- morbidity score at day 7 ([2]; FIGS. 2-3, 30 mg/kg i.v., 4 injections, 50 = all 10 mice healthy): 16/50
- delay of onset of the first death ([2]; FIGS. 2-3, 30 mg/kg i.v., 4 injections, vs placebo): 24 h
- mice alive on day 7 (out of 10) [2, 6]: 8 mice
- delay of onset of the first death ([2]; FIGS. 4-5, 2.5.10^6 CFU/mouse, 10 mg/kg, placebo first deaths day 2.5): 36 h
- effect on mouse survival relative to placebo treatment ([2]; FIGS. 6-7, 3.10^6 CFU, 5 mg/kg, three i.v. injections, 10 mice of 15 g): does not significantly increase mouse survival
- effectiveness in the candidiasis infected model ([2]; FIGS. 6-7, dose 5 mg/kg): not effective
- Activity A.f. (relative activity in relation to heliomycin) (Aspergillus fumigatus): 2

Compound: DKLIGSCVWGAVNYTSNCNAECKRRGYKGGHCGSFLNVNCWCER (disulfide 7-32, 18-40, 22-42 (inferred)) [pEM48]
- MIC (C. tropicalis): 3.125 µg/mL
- MIC (C. glabrata): >25 µg/mL
- MIC (C. kefyr): 25 µg/mL
- MIC (C. krusei): 1.56 µg/mL
- MIC (C. parapsilosis): 0.78 µg/mL
- MIC (Alternaria brassicola): 12.5 µg/mL
- MIC (Neurospora crassa): 0.39 µg/mL
- MIC (C. albicans): 1.56 µg/mL
- Activity C.a. (relative activity in relation to Ard1) (Candida albicans): 6-12
- Activity A.f. (relative activity in relation to Ard1) (Aspergillus fumigatus): 1-2
